This is an account of results in publication PMC12737779, “Concurrent Assessment of Synthetic and Natural Compounds on the Proliferation of Toxoplasma gondii in In Vitro Models” (Tropical Medicine and Infectious Disease, 2025).

Molecules are shown by their SMILES.

The test system of data set [1] is T. gondii RH GFP tachyzoites. Nature of the data set: T. gondii RH GFP tachyzoite viability following 3 h pretreatment of parasites. The conditions noted are these: for Tachyzoite Pre-Treatment SI: CC50/IC50, tachyzoite pre-treatment; for IC50: read-out: Tachyzoite Pre-Treatment IC50. It is filed as cell-based, Toxoplasma gondii. The procedure:
Following treatment, tachyzoites were centrifuged at 712× g for 10 min, and the supernatant was discarded. Fresh medium devoid of compounds was then added to resuspend the parasites. Subsequently, 10,000 pretreated T. gondii RH GFP tachyzoites were introduced into each well of a 96-well plate containing Vero cells at 100% confluence. Seventy-two hours post-infection, each well of the 96-well plate was examined using a 10× objective on an EVOS microscope. Semiquantitative digital analysis was performed using ImageJ v1.54d, employing the triangle auto-threshold method to quantify the number of viable GFP fluorescent tachyzoites per image, as previously described.
(§1) The normalized viability percentages (Y-values) of viable host cells and viable T. gondii GFP RH tachyzoites were calculated from the mean ± standard deviation for each concentration evaluated in triplicate. The concentration values (X-axis) were subjected to logarithmic transformation to fit the data to a sigmoidal curve. The half-maximal cytotoxic concentration (CC50) was estimated as the interpolated concentration value on the X-axis corresponding to the response midway between the fitted top and bottom plateaus of the curve. Similarly, the half-maximal inhibitory concentration (IC50) was determined as the concentration at which the response was halfway between the top and the bottom plateaus. Data analysis and visualization were conducted using GraphPad Prism version 8.4.3 (GraphPad Software, San Diego, CA, USA). The selectivity index, also known as the Therapeutic Index, was calculated using the formula: SI = CC50/IC50.

The test system of data set [2] is T. gondii RH GFP tachyzoites. Nature of the data set: T. gondii RH GFP tachyzoite viability assay, 72 h continuous exposure. It is filed as cell-based, Toxoplasma gondii. The settings on record: for IC50: 72 h continuous exposure, GFP tachyzoite viability in Vero cells; for SI: CC50/IC50, 72 h continuous exposure. The procedure: Approximately 10,000 tachyzoites of the T. gondii RH GFP strain were quantified using a hemocytometer and subsequently inoculated into Vero cells at full confluence per well in a 96-well plate using a medium conducive to parasite maintenance. Following our laboratory protocols and the methodologies outlined in previous studies, we routinely utilize an inoculum of 10,000 parasites for the Toxoplasma gondii RH-GFP tachyzoite viability assay, which is conducted over a 72 h duration. This parasite density ensures reliable detection of tachyzoite growth and viability while minimizing the likelihood of detachment or any degree of disruption to the host cell monolayer. Concurrently, derivatives of pyrazoline, pyrazole, and thiazolidinone nucleus compounds were introduced at […], with 1:2 dilutions commencing at 160 μM and decreasing to a minimum concentration of 1.25 μM in triplicate. The controls employed in this experiment included non-infected cells (NC), 10 μM pyrimethamine (Pyr), 1% dimethyl sulfoxide (DMSO), and infected cells without treatment (IC). Seventy-two hours post-infection, each well in the 96-well plate was examined using a 10× objective on the EVOS FL Color Imaging System with the GFP fluorescent light cube, and images were captured approximately at the center of each well. The parasites that glowed green were considered viable, and the percentage of tachyzoite viability was compared with that of the untreated parasites. Subsequently, images were recorded, contrast was adjusted, and a semiquantitative digital analysis was conducted using ImageJ v1.54d and the triangle auto-threshold method to determine the number of viable GFP fluorescent tachyzoites per image, as previously described. The percentage of viable parasites was calculated using the formula: Fluorescence of the sample with treatment URF × 100/fluorescence of the control without treatment, where URF = unit relatives of fluorescence calculated with the formula: (sample fluorescence/fluorescence in blank well) × 100.
as §1

Another data set deals with Vero cells. Nature of the data set: Cytotoxicity in Vero cells by Alamar Blue assay. Type of data set: cell-based, African green monkey. The settings on record: 24 h. The procedure:
(§2) The Vero cell line was seeded in 96-well plates at approximately 20,000 cells per well until approximately 100% confluence was reached. […] All compounds were evaluated at elevated concentrations, diluted in 1% DMSO, to determine the maximum concentration at which they could remain in solution for experimental purposes. It was observed that most compounds were not fully soluble at 320 µM. […] Consequently, all further experiments were initiated from this concentration. […] Four hours later, fluorescence was measured using a BioTek Synergy HTX plate reader at 530/25 nm excitation and 590/25 nm emission. […] A color change in the growth control well to pink indicated proper cell growth, and no color change in the sterile control well indicated the absence of contaminants. The normalized viability percentages (Y-values) of viable host cells and viable T. gondii GFP RH tachyzoites were calculated from the mean ± standard deviation for each concentration evaluated in triplicate. The concentration values (X-axis) were subjected to logarithmic transformation to fit the data to a sigmoidal curve. The half-maximal cytotoxic concentration (CC50) was estimated as the interpolated concentration value on the X-axis corresponding to the response midway between the fitted top and bottom plateaus of the curve. Similarly, the half-maximal inhibitory concentration (IC50) was determined as the concentration at which the response was halfway between the top and the bottom plateaus. Data analysis and visualization were conducted using GraphPad Prism version 8.4.3 (GraphPad Software, San Diego, CA, USA). The selectivity index, also known as the Therapeutic Index, was calculated using the formula: SI = CC50/IC50.
On the technique in general: The colour change of resazurin is a common sign of viable cells or microbes.

The subject of data set [3] is T. gondii RH GFP tachyzoites. Nature of the data set: T. gondii RH GFP tachyzoite viability following 24 h pretreatment of host cells. Type of data set: cell-based, Toxoplasma gondii. The settings on record: for Host Cell Pre-Treatment SI: CC50/IC50, host cell pre-treatment; for IC50: Vero cells pretreated 24 h, read 72 h post-infection, read-out: Host Cell Pre-Treatment IC50. The procedure:
Subsequently, 10,000 T. gondii RH GFP tachyzoites were introduced into each well. The experimental controls included non-infected cells (NC), 10 μM pyrimethamine (Pyr), 1% dimethyl sulfoxide (DMSO), and infected cells without treatment (IC). After 24 h of host cell treatment, the medium was replaced with a compound-free medium for parasite maintenance. Seventy-two hours post-infection, each well of the 96-well plate was examined using a 10× objective on an Evos FL Auto Cell Imaging System microscope (Life Technologies, Carlsbad, CA, USA). A semiquantitative digital analysis was conducted using ImageJ v1.54d and the triangle auto-threshold method to quantify the number of viable GFP fluorescent tachyzoites per image, as previously described.
as §1

Data set [4] in a line: Cytotoxicity in Vero cells by Alamar Blue assay. It is filed as cell-based, African green monkey. The settings on record: African green monkey. How it is done:
as §2

Setting [5] is: tachyzoites pretreated 3 h, read 72 h post-infection.
Setting [6] is: Toxoplasma gondii, tachyzoites pretreated 3 h, read 72 h post-infection.

Usually IC50 stands for the point on the concentration scale where inhibition reaches its midpoint. In general, CC50 refers to the concentration giving 50% cytotoxicity. With `COc1cc(C2=NNC(c3ccc(F)cc3)C2)ccc1O` (stereo not shown) [Compound 1], in data set [1], the “Tachyzoite Pre-Treatment SI” value was 5.6. The IC50 in data set [1] (setting [5]) came out at 23.4 µM; in data set [2], 6.7 µM; in data set [3], 7.5 µM. Further, the SI in data set [2] is reported as 19.6. Moreover, the CC50 with Vero cells worked out at 132 µM. Besides, the “Host Cell Pre-Treatment SI” value in data set [3] is listed as 17.5.
Consider `COc1cc(C2=NNC(c3ccc(Cl)cc3)C2)ccc1O` (stereo not shown) [Compound 2], for which, in data set [1], the “Tachyzoite Pre-Treatment SI” value is listed as 18.6. Further, the IC50 in data set [1] (setting [5]) amounted to 6.6 µM. The molecule also registered an SI in data set [2] of 73.3. In addition, the CC50 with Vero cells is 123 µM. In addition, in data set [3], the “Host Cell Pre-Treatment SI” value is 16.4 and the IC50 came out at 7.5 µM.
In data set [2], `COc1ccc(C2CC(c3ccc(O)c(OC)c3)=NN2)cc1` (stereo not shown) [Compound 3] yielded an IC50 of 18.1 µM and an SI of more than 8.3. For the same molecule, the CC50 in the data set on Vero cells is more than 160 µM.
Regarding `COc1cc(C2=NNC(c3ccc4c(c3)OCO4)C2)ccc1O` (stereo not shown) [Compound 4], the “Tachyzoite Pre-Treatment SI” value in data set [1] is recorded as 4.8. Besides, the IC50 in data set [1] (setting [5]) worked out at 31.6 µM. This molecule also gave an SI in data set [2] of 42.6. Further, in the data set with Vero cells, the CC50 was 154 µM. In data set [3], the “Host Cell Pre-Treatment SI” value stood at 28.9 and the IC50 stood at 5.3 µM.
In data set [2], `CC(C)(C)n1nc(-c2c[nH]c3ccccc23)c(C#N)c1-c1c(Cl)cccc1Cl` [Compound 5] had an IC50 of 14 µM and an SI of more than 11.4. In addition, the CC50 in the data set with Vero cells is more than 160 µM.
The matching figures for `CC(C)(C)n1nc(-c2c[nH]c3ccccc23)c(C#N)c1-c1ccc(Br)cc1` [Compound 8]: 21 µM, more than 7.6 and more than 160 µM.
For the molecule `CC(=NO)C(C)=NN=C1NC(=O)/C(=C/c2ccccc2O)S1` [Compound 9], in data set [1], the “Tachyzoite Pre-Treatment SI” value was more than 164.9. Moreover, the IC50 in data set [1] (setting [6]) was 0.9 µM; in data set [2] (Toxoplasma gondii), 6.1 µM; in data set [3] (Toxoplasma gondii), 10.7 µM. For the same molecule, the SI in data set [2] was more than 25.9. For the same molecule, in data set [4], the CC50 at 24 h was more than 160 µM. Also, in data set [3], the “Host Cell Pre-Treatment SI” value was more than 14.9.
Take `CC(=NO)C(C)=NN=C1NC(=O)C(=Cc2ccc(O)cc2)S1` [Compound 10]: in data set [1], the “Tachyzoite Pre-Treatment SI” value worked out at 12.4. Moreover, in data set [1] (setting [5]), the concentration for half-maximal inhibition (IC50) worked out at 4.9 µM. In data set [2], this molecule had an IC50 of 5.7 µM and an SI of 10.6. In addition, in the data set on Vero cells, the CC50 was determined as 61.2 µM. Moreover, in data set [3], the “Host Cell Pre-Treatment SI” value is given as 3.9 and the IC50 came to 15.4 µM.
Consider `CC(=N/O)/C(C)=N\N=C1/NC(=O)/C(=C/c2ccc(C#N)cc2)S1` [Compound 11], for which, in data set [1], the “Tachyzoite Pre-Treatment SI” value amounted to 1.8. Also, the IC50 was 29.5 µM in data set [1] (setting [6]), 3.6 µM in data set [2] (Toxoplasma gondii) and 22.5 µM in data set [3] (Toxoplasma gondii). For the same molecule, the SI in data set [2] is given as 14.5. Further, the CC50 at 24 h in data set [4] turned out to be 53.2 µM. Moreover, the “Host Cell Pre-Treatment SI” value in data set [3] was found to be 2.3.
Consider `COc1ccc(C=C2SC(=NN=C(C)C(C)=NO)NC2=O)cc1` [Compound 12], for which, in data set [1], the “Tachyzoite Pre-Treatment SI” value is 6.9. Also, the IC50 in data set [1] (setting [5]) was 5.8 µM. In data set [2], this molecule gave an IC50 of 3.9 µM and an SI of 10.2. In addition, in the data set on Vero cells, the CC50 was 40.3 µM. In data set [3], the “Host Cell Pre-Treatment SI” value came to 3.8 and the IC50 was found to be 10.5 µM.
Consider `CC(=N/O)/C(C)=N\N=C1/NC(=O)/C(=C/c2ccc(O)c(O)c2)S1` [Compound 13], for which the “Tachyzoite Pre-Treatment SI” value in data set [1] is reported as more than 8.0. In data set [1] (setting [5]), the IC50 worked out at 19.8 µM. In data set [2], this molecule came in with an IC50 of 8.8 µM and an SI of more than 18.1. Besides, the CC50 with Vero cells is more than 160 µM. Further, in data set [3], the “Host Cell Pre-Treatment SI” value is recorded as more than 0.6.
Consider `CC(=N/O)/C(C)=N\N=C1/NC(=O)/C(=C/c2ccc(Cl)cc2)S1` [Compound 14], for which, in data set [2], the IC50 is 142 µM and the SI is recorded as more than 1.1. Further, in the data set with Vero cells, the cytotoxic concentration (CC50) is more than 160 µM.
In the case of `CC(=N/O)/C(C)=N\N=C1\NC(=O)/C(=C/c2cc3ccccc3[nH]c2=O)S1` [Compound 15], the “Tachyzoite Pre-Treatment SI” value in data set [1] is listed as more than 39.7. Also, the IC50 in data set [1] (setting [6]) came out at 4 µM; in data set [2] (Toxoplasma gondii) it was 9.5 µM; in data set [3] (Toxoplasma gondii) it was 54.4 µM. For the same molecule, the SI in data set [2] is more than 16.8. In addition, the CC50 at 24 h in data set [4] was more than 160 µM. Besides, in data set [3], the “Host Cell Pre-Treatment SI” value is listed as more than 2.9.
For `CCc1nc(N)nc(N)c1-c1ccc(Cl)cc1` [Pyrimethamine, pyrimethamine, reference compound], the “Tachyzoite Pre-Treatment SI” value in data set [1] was more than 32.4. Also, the IC50 is 6.1 µM in data set [1] (Toxoplasma gondii), 0.3 µM in data set [2] (Toxoplasma gondii) and 1 µM in data set [3] (Toxoplasma gondii). In data set [2], this molecule came in with an SI of more than 666. Further, in data set [4], the CC50 at 24 h was more than 200 µM. Moreover, the “Host Cell Pre-Treatment SI” value in data set [3] was more than 190.
